Assay results: paper PMC10673058, “In Silico and In Vitro Search for Dual Inhibitors of the Trypanosoma brucei and Leishmania major Pteridine Reductase 1 and Dihydrofolate Reductase” (Molecules, 2023)
Where two headings read alike, the source gives them in different places.

How the values were obtained:
Format in all cases: biochemical
TbDHFR = molecular target: T1, TbDHFR (Trypanosoma brucei brucei, UniProt Q27783); experiment: Spectrophotometric enzyme inhibition assay, recombinant TbDHFR
T1 construct: pET 11D::TbDHFRHis vector design for the recombinant overexpression of TbDHFR in E. coli; His; made in house; host or cells: E. coli BL21(DE3), vector pET 11D::TbDHFRHis
T1 sequence (Q27783 28-238 limits assumed): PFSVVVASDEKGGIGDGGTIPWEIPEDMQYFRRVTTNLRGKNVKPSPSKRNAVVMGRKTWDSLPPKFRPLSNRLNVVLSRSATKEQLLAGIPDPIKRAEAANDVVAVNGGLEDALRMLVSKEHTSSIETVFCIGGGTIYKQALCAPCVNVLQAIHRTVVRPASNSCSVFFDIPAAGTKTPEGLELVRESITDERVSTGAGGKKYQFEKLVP
Protocol: (§1) Based on the in vitro assays against TbPTR1 and LmPTR1 performed in the previous works of our group, as well as the in silico results obtained from the current study, a total of 47 natural products were tested against the target enzymes.
The saturating conditions for TbDHFR and LmDHFR were determined using the diagrams depicted in Figures S17 and S19 in the Supplementary Materials.
(§2) The inhibitory effect of the selected natural products was investigated by testing the DMSO solution of each compound at a constant concentration of 100 μM for TbPTR1 and 50 μM for LmPTR1, TbDHFR, and LmDHFR, as well as hDHFR. The concentrations of the cofactor and substrates were set at the previously determined saturating conditions (Section 4.2.5). Each test compound was incubated for 20 min with the respective enzyme and NADPH to ensure a sufficient interaction time before the reaction was induced by the addition of the substrate. The enzymatic activity was determined in duplicates and correlated with a reference that contained just DMSO, instead of an inhibitor. The enzymatic activity of the reference was normalized to 100%.
(§3) The half-maximal inhibitory concentration (IC50) of the natural products was determined in triplicate, using at least five different inhibitor concentrations against a reference containing no inhibitor. The enzymatic activity was documented and analyzed and the IC50 value was determined by nonlinear regression using GraphPad Prism 9 (GraphPad Software Inc., La Jolla, CA, USA).

LmDHFR = molecular target: T2, LmDHFR (Leishmania major, UniProt P07382); experiment: Spectrophotometric enzyme inhibition assay, recombinant LmDHFR
T2 construct: The DNA fragment encoding LmDHFR was amplified by Phusion DNA polymerase; His6 (N); made in house; host or cells: E. coli BL21(DE3), vector pET 11D::LmDHFRHis
T2 sequence (P07382 26-229 limits assumed): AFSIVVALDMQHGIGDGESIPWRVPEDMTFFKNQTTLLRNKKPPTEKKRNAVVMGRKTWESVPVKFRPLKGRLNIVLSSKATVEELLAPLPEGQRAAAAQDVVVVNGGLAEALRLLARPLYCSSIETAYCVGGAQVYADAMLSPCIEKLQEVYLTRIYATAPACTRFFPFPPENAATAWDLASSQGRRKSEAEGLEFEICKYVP
Protocol: as §1, with “enzymes. […] The concentration-effect curves for the IC50 and EC50 values that were obtained in the present study are depicted in Supplementary Materials Figures S21–S42.” for “enzymes.”
The TbDHFR concentration was measured to be 0.04 mg/mL and a specific activity of 38.1 U/mg was calculated. The concentration of LmDHFR was 0.05 mg/mL with a specific activity of 56.2 U/mg. All measurements were carried out using the saturating concentrations for dihydrofolate (50 μM) and NADPH (150 μM) in Buffer C (50 mM Tris/HCl (pH 7.6), 250 mM NaCl, 10 mM BME). The saturating conditions for TbDHFR and LmDHFR were determined using the diagrams depicted in Figures S17 and S19 in the Supplementary Materials.
as §2, §3

LmPTR1 = molecular target: T3, LmPTR1 (Leishmania major, UniProt Q01782); experiment: Spectrophotometric enzyme inhibition assay, recombinant LmPTR1
T3 construct: His6 (N); made in house; host or cells: E. coli BL21 (DE3), vector pET 15b::LmPTR1His (strain from the group of M. Paola Costi, Modena)
T3 sequence (Q01782 1-288): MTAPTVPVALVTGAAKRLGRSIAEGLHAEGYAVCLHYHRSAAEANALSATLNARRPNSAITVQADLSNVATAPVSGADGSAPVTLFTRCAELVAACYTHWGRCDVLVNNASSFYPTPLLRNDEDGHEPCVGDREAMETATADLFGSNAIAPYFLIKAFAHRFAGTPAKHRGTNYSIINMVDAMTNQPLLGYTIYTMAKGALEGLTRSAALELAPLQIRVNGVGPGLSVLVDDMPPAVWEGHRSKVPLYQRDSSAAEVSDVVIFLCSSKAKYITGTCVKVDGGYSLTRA
Protocol: as §1, with “enzymes. […] The concentration-effect curves for the IC50 and EC50 values that were obtained in the present study are depicted in Supplementary Materials Figures S21–S42.” for “enzymes.”
(§4) The used TbPTR1 concentration was 3.23 mg/mL, with a specific activity of 0.03 U/mg. The measurements were carried out using the enzyme’s individual saturating concentrations for folic acid (8 μM) and NADPH (150 μM) in Buffer A (50 mM Tris/HCl (pH 7.6), 250 mM NaCl). For LmPTR1, the protein concentration was 5.02 mg/mL and the specific activity was calculated to be 0.29 U/mg. Buffer B (50 mM NaH2PO4 (pH 6.0), 100 mM NaCl) was used for all LmPTR1 measurements and the saturating concentrations amounted to 50 μM of folic acid and 200 μM of NADPH. The saturating conditions of the PTR1 enzymes were determined using the diagrams depicted in Figures S16 and S18 in the Supplementary Materials.
as §2, §3

hDHFR = molecular target: T4, hDHFR (Homo sapiens, UniProt P00374); experiment: Spectrophotometric enzyme inhibition assay, recombinant hDHFR (selectivity); details: for inhibition at 50 µM: set compound concentration of 50 μM, read-out: relative inhibition of hDHFR
T4 construct: His; host or cells: E. coli BL21 (DE3), vector pET 15b::hDHFRHis
T4 sequence (P00374 1-187): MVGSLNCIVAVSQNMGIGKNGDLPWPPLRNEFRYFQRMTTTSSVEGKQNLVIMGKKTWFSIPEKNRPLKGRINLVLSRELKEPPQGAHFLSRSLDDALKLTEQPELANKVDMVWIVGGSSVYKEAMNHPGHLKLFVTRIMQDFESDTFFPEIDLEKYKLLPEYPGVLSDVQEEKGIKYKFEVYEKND
Protocol: For 15 compounds, there was enough substance available to be tested in selectivity studies against hDHFR.
The used hDHFR concentration was 0.64 mg/mL, with a specific activity of 0.62 U/mg. All measurements were carried out using the saturating concentrations for dihydrofolate (100 μM) and NADPH (50 μM) in Buffer C (50 mM Tris/HCl (pH 7.6), 250 mM NaCl, 10 mM BME). The saturating conditions for hDHFR were determined using the diagrams depicted in Figure S20 in the Supplementary Materials.
as §2, §3

TbPTR1 = molecular target: T5, TbPTR1 (Trypanosoma brucei brucei, UniProt O76290); experiment: Spectrophotometric enzyme inhibition assay, recombinant TbPTR1
T5 construct: His6 (N); made in house; host or cells: E. coli BL21 (DE3), vector pET 15b::TbPTR1His (strain from the group of M. Paola Costi, Modena)
T5 sequence (O76290 1-268): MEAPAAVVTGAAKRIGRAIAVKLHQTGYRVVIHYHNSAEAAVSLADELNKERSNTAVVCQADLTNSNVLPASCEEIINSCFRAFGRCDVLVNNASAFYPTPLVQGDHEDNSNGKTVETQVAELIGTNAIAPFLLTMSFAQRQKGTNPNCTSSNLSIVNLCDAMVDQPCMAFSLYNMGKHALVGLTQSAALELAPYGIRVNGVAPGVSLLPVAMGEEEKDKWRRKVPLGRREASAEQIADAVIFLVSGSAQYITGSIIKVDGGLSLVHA
Protocol: as §1, with “enzymes. […] The concentration-effect curves for the IC50 and EC50 values that were obtained in the present study are depicted in Supplementary Materials Figures S21–S42.” for “enzymes.”
as §4, §2, §3

Structure (SMILES) | IC50 (TbDHFR; read-out: IC50 TbDHFR) | IC50 (hDHFR) | IC50 (TbPTR1; read-out: IC50 TbPTR1) | further results
COc1cc(C2OC(=O)C3C(c4ccc(O)c(OC)c4)OC(=O)C23)ccc1O (stereo not drawn) [Compound 22] | > 50 µM | > 50 µM |  | IC50 (LmDHFR; read-out: IC50 LmDHFR): > 50 µM; IC50 (LmPTR1; read-out: IC50 LmPTR1): 30.2 µM; EC50 (TbPTR1; read-out: EC50 TbPTR1 (footnote a)): 37.8 µM
CCC/C=C\C/C=C\CCCCCCCc1cccc(O)c1C(=O)O [Compound 11] | 0.2 µM | 2.4 µM | 20.1 µM | IC50 (LmDHFR; read-out: IC50 LmDHFR): 2.6 µM; IC50 (LmPTR1; read-out: IC50 LmPTR1): 10.2 µM; inhibition at 50 µM (hDHFR): > 50%
COc1c(O)cc2c(=O)c3c(O)cc(O)c(CC=C(C)C)c3oc2c1CC=C(C)C [Compound 13] | 0.6 µM |  | 74.4 µM | 
CCC(C)C(=O)c1c(O)c(C/C=C(\C)CCC=C(C)C)c(O)c2c([C@H](CC)OC(C)=O)cc(=O)oc12 (stereo partly drawn) [Compound 20, surangin B] | 2.9 µM | > 50 µM | 28.3 µM | EC50 (LmDHFR; read-out: EC50 LmDHFR (footnote a)): 4.7 µM; EC50 (LmPTR1; read-out: EC50 LmPTR1 (footnote a)): 35.1 µM
O=c1[nH]c(=O)n([C@@H]2O[C@H](CO)[C@@H](O)[C@H]2O)c2nc(-c3ccc(Cl)cc3)cnc12 [Compound 18] | > 50 µM |  | 58.6 µM | 
CC(C)=CCc1c(O)cc2oc3cc(O)c(O)c(CC=C(C)C)c3c(=O)c2c1O [Compound 14, g-mangostin] |  | 2.7 µM |  | IC50 (TbDHFR): 0.2 µM; IC50 (LmDHFR): 1.5 µM; IC50 (LmPTR1): 10 µM; inhibition at 50 µM (hDHFR): > 50%; IC50 (TbPTR1): 71 µM
C=CC/C=C\C/C=C\CCCCCCCc1cccc(O)c1C(=O)O [Compound 12] |  |  | 21.7 µM | 
